A short description of the series: Bulk and tapped density measurement by standard pharmaceutical methods. The series is classed as physicochemical. How it is done:
Density measurements were carried out using standard pharmaceutical methods for the measurement of bulk and tapped density. A comparison of the apparent density of the freshly dispensed or bulk powder to that of powder after settling is shown in Table 4.

SMILES strings stand for the structures.

Where the note is “freshly dispensed or bulk powder”, `N[C@@H](Cc1c[nH]cn1)C(=O)O` [L-Histidine] had a Bulk Density of 0.55 g/mL. The compound further returned a Tapped Density (powder after settling) of 0.79 g/mL.

The record behind these values is patent US20020004072A1, “"COMPOSITION PROVIDING A SUSTAINED RELEASE OF L-HISTIDINE AND METHODS OF MANUFACTURE THEREOF"” (priority 1999, published 2002).
